Test results taken from US9302993B2, “8-hydroxy quinoline derivatives” (PRANA BIOTECHNOLOGY LIMITED, priority 2002, dated 2016).

What was measured:
healthy volunteers = test: Clinical study of 1033, single and multiple oral doses (Example 23); assay type: in vivo
Description: 1033 was administered to healthy volunteers in a 2-part study comprising single dose administration (Stage A) and multidose administration (Stage B).
The objectives of the following trials were to determine the safety, tolerability and pharmacokinetics of single and multiple oral doses of 1033 in healthy volunteers. Double-blind studies were conducted. The protocol included safety measures designed to capture the potential human adverse effects. A total of 65 healthy subjects have been exposed to doses of 1033 (41 single dose, 24 multiple dose).
In Stage A, fifty five (55) healthy male subjects aged 18-50 years were randomised (3:1) to receive a single oral dose of either placebo or 1033 at one of 7 dose levels (25, 50, 100, 200, 300, 500 or 800 mg).
In Stage B, thirty two (32) healthy male and female subjects aged 45-75 years (eight subjects per dose level) were randomised (3:1) to receive a daily oral dose over 7 consecutive days of either placebo or 1033 at one of 4 dose levels (200, 400, 600 or 800 mg). Each dose level comprised of 4 males and 4 females; the randomisation schedule ensuring that 1 subject/sex received placebo and 3 subjects/sex received 1033.

B:P Ratio = assay type: in vivo

CN(C)Cc1ccc2c(Cl)cc(Cl)c(O)c2n1.Cl [compound 1033, 5,7-Dichloro-2-dimethylaminomethyl-quinolin-8-ol hydrochloride]
tolerability, single oral dose (healthy volunteers; Stage A, healthy male volunteers aged 18 to 50 years, 25-800 mg): well tolerated | clinical laboratory evaluations and physical assessments (healthy volunteers; Stage A, single oral dose): No clinically significant or relevant changes | incidence of adverse events (healthy volunteers; Stage A, single oral dose): 43.9% | tolerability, multiple dose (healthy volunteers; Stage B, healthy elderly subjects, daily oral dose over 7 days, 200-800 mg): generally well tolerated | B:P Ratio (B:P Ratio; at 5 min): 12.85 | B:P Ratio (B:P Ratio; at 60 min): 9.45
